# What was measured:
# [1] = Hydrolytic stability assay at pH 2; assay type: physicochemical; details: buffer pH 2, 37° C.
# Protocol: The hydrolytic stability assay investigates the stability of a compound in an aqueous buffer system. Standard solution stability assay is run in 0.05 M Phosphate buffer at pH 7.4 (pH of blood plasma) at 37° C. As compounds in the GI tract are exposed to a wide variety of pHs any relevant pH (as pH 2 to simulate the acidic condition of the GI tract in the following experiment) can be chosen. Compounds are incubated in relevant solution at 37° C. and analyzed by HPLC immediately after incubation and after 1, 2 and 24 hrs. Degradation rate (decay in %) is calculated by relating peak areas after 1, 2 and 24 hrs to the time zero injection.
# Compound is available as 10 mM in DMSO (solution 1). 2.5 μL of solution 1 is dissolved in 1 mL acetonitrile leading to solution 2. Poorly soluble compounds may demand another dilution step of solution 2 (1:5 and 1:10 respectively) in Acetonitrile). Solution 2 is incubated at 37° C. in a tempered HPLC autosampler. 1 mL buffer pH 2 is transferred into an HPLC vial. 100 μL of solution 2 is added to the buffer pH 2 solution and mixed thoroughly. Immediately after mixing the combined solution is injected into the HPLC to give the time zero injection. Injections are repeated after 1, 2 and 24 hrs.
# The degradation rate (decay in %) is calculated using HPLC software Millennium and Excel respectively.
# Mps-1 kinase [2] = molecular target: T1, Mps-1 kinase (Homo sapiens, UniProt P33981); assay: Mps-1 kinase assay with 2 mM ATP (TR-FRET)
# T1 sequence (P33981 1-857): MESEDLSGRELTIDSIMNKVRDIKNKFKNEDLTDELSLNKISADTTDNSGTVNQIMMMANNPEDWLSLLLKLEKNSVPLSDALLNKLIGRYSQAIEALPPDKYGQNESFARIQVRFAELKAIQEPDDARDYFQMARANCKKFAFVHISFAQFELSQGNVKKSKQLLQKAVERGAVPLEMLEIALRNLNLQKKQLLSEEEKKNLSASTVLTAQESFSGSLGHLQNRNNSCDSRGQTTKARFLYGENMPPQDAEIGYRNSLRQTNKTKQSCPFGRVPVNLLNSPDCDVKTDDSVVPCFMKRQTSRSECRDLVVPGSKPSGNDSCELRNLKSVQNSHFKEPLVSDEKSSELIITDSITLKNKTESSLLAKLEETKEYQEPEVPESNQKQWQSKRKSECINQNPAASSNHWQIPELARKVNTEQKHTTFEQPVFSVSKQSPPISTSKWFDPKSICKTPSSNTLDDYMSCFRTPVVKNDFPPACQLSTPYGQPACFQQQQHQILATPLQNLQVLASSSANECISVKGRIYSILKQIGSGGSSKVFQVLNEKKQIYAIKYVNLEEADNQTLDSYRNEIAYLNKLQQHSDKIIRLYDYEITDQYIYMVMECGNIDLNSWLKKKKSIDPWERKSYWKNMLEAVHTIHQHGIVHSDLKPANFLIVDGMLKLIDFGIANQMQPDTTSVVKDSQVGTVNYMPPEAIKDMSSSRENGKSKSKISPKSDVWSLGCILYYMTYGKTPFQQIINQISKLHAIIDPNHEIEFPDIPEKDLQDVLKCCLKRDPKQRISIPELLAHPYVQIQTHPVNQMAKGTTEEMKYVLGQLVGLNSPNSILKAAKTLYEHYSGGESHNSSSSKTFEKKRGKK
# Mps-1 kinase [3] = molecular target: T1, Mps-1 kinase; assay: Mps-1 kinase assay with 10 μM ATP (TR-FRET)
# [4] = comparison compounds specified in WO2011/063908
Compound,"Hydrolysis at pH 2; Decay in % after 24 h [1, 4]",Hydrolysis at pH 2; Decay in % after 24 h ([1]; compounds of the invention) [%],IC50 (Mps-1 kinase [2]) [nM],IC50 (Mps-1 kinase [3]) [nM]
"N#Cc1ccccc1Nc1nc2ccc(-c3ccc(NC(=O)Cc4ccc(F)cc4)cc3)cn2n1 [Example 1, reference compound]",≧90%,–,–,–
"CCN(CC)C(=O)c1ccc(Nc2nc3ccc(-c4ccc(NC(=O)Cc5ccc(F)cc5)cc4)cn3n2)c(OC)c1 [Example 01.1, N,N-diethyl-4-{[6-(4-{[(4-fluorophenyl)acetyl]amino}phenyl)[1,2,4]-triazolo[1,5-α]pyridin-2-yl]amino}-3-methoxybenzamide]",–,<10,1.2,≤ 1
"COc1cc(C#N)ccc1Nc1nc2ccc(-c3ccc(NC(=O)Cc4ccc(F)cc4)cc3)cn2n1 [Example 01.2, N-(4-{2-[(4-cyano-2-methoxyphenyl)amino][1,2,4]triazolo[1,5-α]pyridin-6-yl}phenyl)-2-(4-fluorophenyl)acetamide]",–,<10,4.1,≤ 1
"CCOc1cc(F)ccc1Nc1nc2ccc(-c3ccc(NC(=O)Cc4ccc(F)cc4)cc3)cn2n1 [Example 01.3, N-(4-{2-[(2-ethoxy-4-fluorophenyl)amino][1,2,4]triazolo[1,5-α]pyridin-6-yl}phenyl)-2-(4-fluorophenyl)acetamide]",–,<10,1.1,≤ 1
"CCNC(=O)c1ccc(Nc2nc3ccc(-c4ccc(NC(=O)Cc5ccc(F)cc5)cc4)cn3n2)c(OC)c1 [Example 01.4, N-ethyl-4-{[6-(4-{[(4-fluorophenyl)acetyl]amino}phenyl)[1,2,4]triazolo[1,5-α]pyridin-2-yl]amino}-3-methoxybenzamide]",–,<10,≤ 1,≤ 1
"COc1cc(C(=O)NC(C)(C)C)ccc1Nc1nc2ccc(-c3ccc(NC(=O)Cc4ccc(F)cc4)cc3)cn2n1 [Example 01.5, N-tert-butyl-4-{[6-(4-{[(4-fluorophenyl)acetyl]amino}phenyl)[1,2,4]-triazolo[1,5-α]pyridin-2-yl]amino}-3-methoxybenzamide]",–,<10,≤ 1,≤ 1
"COc1cc(C(=O)NCCO)ccc1Nc1nc2ccc(-c3ccc(NC(=O)Cc4ccc(F)cc4)cc3)cn2n1 [Example 01.6, 4-{[6-(4-{[(4-fluorophenyl)acetyl]amino}phenyl)[1,2,4]triazolo[1,5-α]-pyridin-2-yl]amino}-N-(2-hydroxyethyl)-3-methoxybenzamide]",–,<10,≤ 1,≤ 1
"CCOCCNC(=O)c1ccc(Nc2nc3ccc(-c4ccc(NC(=O)Cc5ccc(F)cc5)cc4)cn3n2)c(OC)c1 [Example 01.7, N-(2-ethoxyethyl)-4-{[6-(4-{[(4-fluorophenyl)acetyl]amino}phenyl)[1,2,4]-triazolo[1,5-α]pyridin-2-yl]amino}-3-methoxybenzamide]",–,<10,≤ 1,≤ 1
"CCOc1cc(C(=O)NCCO)ccc1Nc1nc2ccc(-c3ccc(NC(=O)Cc4ccc(F)cc4)cc3)cn2n1 [Example 01.8, 3-ethoxy-4-{[6-(4-{[(4-fluorophenyl)acetyl]amino}phenyl)[1,2,4]triazolo-[1,5-α]pyridin-2-yl]amino}-N-(2-hydroxyethyl)benzamide]",–,<10,≤ 1,≤ 1
"CCOc1cc(C(=O)NC(C)(C)CO)ccc1Nc1nc2ccc(-c3ccc(NC(=O)Cc4ccc(F)cc4)cc3)cn2n1 [Example 01.9, 3-ethoxy-4-{[6-(4-{[(4-fluorophenyl)acetyl]amino}phenyl)[1,2,4]triazolo-[1,5-α]pyridin-2-yl]amino}-N-(1-hydroxy-2-methylpropan-2-yl)benzamide]",–,<10,≤ 1,≤ 1
"CCOc1cc(C(=O)N(CC)CC)ccc1Nc1nc2ccc(-c3ccc(NC(=O)Cc4ccc(F)cc4)cc3)cn2n1 [Example 01.10, 3-ethoxy-N,N-diethyl-4-{[6-(4-{[(4-fluorophenyl)acetyl]amino}phenyl)-[1,2,4]triazolo[1,5-α]pyridin-2-yl]amino}benzamide]",–,<10,≤ 1,≤ 1
"O=C(Cc1ccc(F)cc1)Nc1ccc(-c2ccc3nc(Nc4ccc(C(=O)NCCO)cc4OCC(F)(F)F)nn3c2)cc1 [Example 01.11, 4-{[6-(4-{[(4-fluorophenyl)acetyl]amino}phenyl)[1,2,4]triazolo[1,5-α]-pyridin-2-yl]amino}-N-(2-hydroxyethyl)-3-(2,2,2-trifluoroethoxy)benzamide]",–,<10,≤ 1,≤ 1
"COc1cc(S(C)(=O)=O)ccc1Nc1nc2ccc(-c3ccc(NC(=O)Cc4ccc(F)cc4)cc3)cn2n1 [Example 01.15, 2-(4-fluorophenyl)-N-[4-(2-{[2-methoxy-4-(methylsulfonyl)phenyl]amino}-[1,2,4]triazolo[1,5-α]pyridin-6-yl)phenyl]acetamide]",–,<10,–,–
"N#Cc1c(F)cccc1Nc1nc2ccc(-c3ccc(NC(=O)Cc4ccccc4)cc3)cn2n1 [Example 2, reference compound]",≧20%,–,–,≤ 1
"N#Cc1ccccc1Nc1nc2ccc(-c3ccc(NC(=O)Cc4ccccc4F)cc3)cn2n1 [Example 3, reference compound]",≧70%,–,–,≤ 1
"N#Cc1ccccc1Nc1nc2ccc(-c3ccc(NC(=O)Cc4ccc(F)c(F)c4)cc3)cn2n1 [Example 4, reference compound]",≧70%,–,–,≤ 1
"COc1cccc(CC(=O)Nc2ccc(-c3ccc4nc(Nc5ccccc5C#N)nn4c3)cc2)c1 [Example 5, reference compound]",≧70%,–,–,≤ 1
"COc1cc(C(=O)NC(C)(C)CO)ccc1Nc1nc2ccc(-c3ccc(C(=O)NCc4ccc(F)cc4)c(Cl)c3)cn2n1 [Example 05.1, 2-chloro-N-(4-fluorobenzyl)-4-[2-({4-[(1-hydroxy-2-methylpropan-2-yl)-carbamoyl]-2-methoxyphenyl}amino)[1,2,4]triazolo[1,5-α]pyridin-6-yl]-benzamide]",–,<10,–,≤ 1
"N#Cc1ccccc1Nc1nc2ccc(-c3ccc(NC(=O)Cc4ccccc4)cc3)cn2n1 [Example 6, reference compound]",≧90%,–,–,–
"CCNC(=O)c1ccc(Nc2nc3ccc(-c4ccc(C(=O)NCC5CC5)cc4)cn3n2)c(OCC)c1 [Example 06.1, 4-[(6-{4-[(cyclopropylmethyl)carbamoyl]phenyl}[1,2,4]triazolo[1,5-α]-pyridin-2-yl)amino]-3-ethoxy-N-ethylbenzamide]",–,<10,–,≤ 1
"N#Cc1ccccc1Nc1nc2ccc(-c3ccc(NC(=O)Cc4cccc(F)c4)cc3)cn2n1 [Example 7, reference compound]",≧70%,–,–,1.1
"N#Cc1ccccc1Nc1nc2ccc(-c3ccc(NC(=O)Cc4cccc(C(F)(F)F)c4)cc3)cn2n1 [Example 8, reference compound]",≧70%,–,–,1.4
"Cc1ccc(C#N)c(Nc2nc3ccc(-c4ccc(NC(=O)Cc5ccccc5)cc4)cn3n2)c1 [Example 10, reference compound]",≧70%,–,–,2.1

# From patent publication US20140120087A1, “TRIAZOLOPYRIDINES” (BAYER INTELLECTUAL PROPERTY GMBH, priority 2011, published 2014)
